Data from patent US20240228465A1, “SUBSTITUTED PYRIDINE N-OXIDE DERIVATIVES USEFUL AS A FACTOR XIA INHIBITORS” (Janssen Pharmaceutica NV, priority 2021, published 2024).
Read-outs that look alike come from different tables or passages of the source.

What was measured:
Factor XIa = Factor XIa (Homo sapiens, UniProt P03951); assay: Factor XIa inhibition assay utilizing a fluorophore-quencher pair peptide substrate (FLINT); type: biochemical
From the text: Biological Example 1: Factor XIa Inhibition Assay Utilizing a Fluorophore-Quencher Pair Peptide Substrate
A fluorescence intensity (FLINT) based assay was used to monitor inhibition of Factor XIa. The peptide substrate, 5Fam-KLTRAETV-K5Tamra (purchased from New England Peptide) was chosen based on the […]. Conversion of zymogen […]. The custom peptide used in this assay was based on the Arg146 cleavage site of FXI. The peptide substrate was designed with a fluorophore-quencher pair, where the fluorescence is quenched until FXIa cleaves the 8-mer peptide after the Arg residue. The substrate KM was fit to a substrate inhibition model whereby kcat=0.86 s^−1, KM=12.4 μM, Ki=61.6 μM with an enzymatic efficiency, and kcat/KM=69523 M^−1s^−1.
The Factor XIa FLINT assay was used with the following 5Fam-KLTRAETV-K5Tamra assay buffer: 50 mM Tris, pH 7.5, 100 mM NaCl, 5 mM CaCl2, 0.1 mg/mL BSA, 0.03% CHAPS. Assay buffer was prepared by mixing all ingredients fresh. 5Fam-KLTRAETV-K5Tamra peptide substrate was first prepared at 10 mM in 100% DMSO, then diluted to 3 mM in 100% DMSO. Assay buffer was then added directly to the 3 mM stock of substrate to prepare the 30 μM 2× working concentration (15 μM final concentration). The 2× Factor XIa stock solution was prepared by diluting 6.562 μM stock in 1× assay buffer for a […].
Test compound(s) were run in an 11-point, 3-fold serial dilution with a final top compound concentration of 100 nM. Final DMSO in assay was 2%. FXIa was preincubated with compound for 30-minutes and then substrate was added to initiate the reaction. The assay was run with either end point (EP) reads at 30 min or kinetic (KIN) reads at 5 min intervals over 30 minutes. The time course was linear using 100 μM FXIa greater than 30 minutes. More specifically, the assay was run as follows: • 100 nL of 0.01 mM test compound was dispensed into black 384-well non-binding Greiner BioOne 784900 plate for 0.1 μM final concentration; • 5 μL of 1× assay buffer was dispensed to column 24 (low control) and 5 μL 2× Factor XIa solution was dispensed to columns 1-23 (column 23 high control); • the plate was centrifuged with a “cover” plate at 500 rpm for 1 min • the plate was pre-incubated for 30 minutes at room temperature with plate covered; • 5 μL of 2× 5Fam-KLTRAETV-K5Tamra peptide substrate was dispensed into the entire plate, columns 1-24; • the plate was centrifuged with a “cover” plate at 500 rpm for 1 min; • the plate was read monitoring fluorescence intensity on the BMG PHERAStar at room temperature, using fluorescence module 485 nm/520 nm.
(§1) Percent inhibition (IC50) curves were generated per compound tested, and data was analyzed using a 4-parameter logistic fit using GeneData Screener. The relative fluorescence unit (RFU) values were normalized to percent inhibition using the following equation:
[formula] • where LC—low control=mean signal of no Factor XIa or 100% inhibition of Factor XIa; HC—high control=mean signal of Factor XIa+5Fam-KLTRAETV-K5Tamra peptide substrate with DMSO only.
(§2) An 11-point dose response curve for the test compound(s) was generated using GENDATA to determine IC50 value based on the following equation:
(§3) [formula] • where Y is the % inhibition in the presence of X inhibitor concentration, Top=high control=mean signal of Factor XIa+5Fam-KLTRAETV-K5Tamra peptide substrate with DMSO only; Bottom=low control—mean signal of no Factor XIa or 100% inhibition of Factor XIa; HillSlope—Hill coefficient; and IC50=concentration of compound with 50% inhibition in relation to top/high control.
Representative compounds of formula (I) of the present invention were tested according to the procedure described in Biological Example 1 and Biological Example 2 above, with results as listed in Table 3, below. […]

human plasma kallikrein = human plasma kallikrein (Homo sapiens, UniProt P03952); assay: Kallikrein inhibition assay utilizing a quenched AMC peptide substrate (FLINT); type: biochemical
Experimental: Biological Example 2: Kallikrein Inhibition Assay Utilizing a Quenched AMC Peptide Substrate
A fluorescence intensity (FLINT) based assay was used to monitor inhibition of human plasma kallikrein. The peptide substrate, Z-Gly-Pro-Arg-AMC (Purchased from Bachem; Catalog #I-1150) was chosen based on its relatively low KM for kallikrein which enables running the assay at lower substrate concentrations to control background fluorescence. The kinetic parameters for this substrate were determined by fitting titration data to the Michaelis-Menten equation yielding a KM=40 μm, kcat=0.76 s^−1, and kcat/KM=18932 M^−1s^−1.
The Kallikrein FLINT assay was used with the following Z-Gly-Pro-Arg-AMC assay buffer: 50 mM Tris, pH 7.5, 100 mM NaCl, 5 mM CaCl2, 0.1 mg/mL BSA, 0.03% CHAPS. Assay buffer was prepared by mixing all ingredients fresh. 2× Z-Gly-Pro-Arg-AMC peptide substrate was prepared by diluting 10 mM stock into 1× assay buffer for a 100 μM working concentration (50 μM final concentration). The 2× kallikrein stock solution was prepared by diluting 14.76 μM stock in 1× assay buffer for a 4 nM working stock solution (2 nM final concentration).
Test compound(s) were run in an 11-point, 3-fold serial dilution with a final top compound concentration of 1 μM. Final DMSO in assay was 2%. Plasma kallikrein was pre-incubated for 30-minute with compound and then 50 μM substrate was added to initiate the reaction. The assay was run with either end point (EP) reads at 30 min or kinetic (KIN) reads at 5 min intervals over 30 minutes. The time course was linear using 2 nM kallikrein greater than 30 minutes. More specifically, the assay was run as follows: • 100 nL of 0.1 mM test compound was dispensed into black 384-well non-binding Greiner BioOne 784900 plate for 1 μM final concentration; • 5 μL of 1× assay buffer was dispensed to columns 24 (low control) and 5 μL 2× human kallikrein enzyme solution was dispensed to columns 1-23 (column 23 high control); • the plate was centrifuged with a “cover” plate at 500 rpm for 1 min • the plate was pre-incubated for 30 minutes at room temperature with plate covered; • 5 μL of 2× Z-Gly-Pro-Arg-AMC peptide substrate was dispensed into the entire plate, columns 1-24; • the plate was centrifuged with a “cover” plate at 500 rpm for 1 min; • the plate was read monitoring fluorescence intensity on the BMG PHERAStar at room temperature, using fluorescence module 340 nm/440 nm.
as §1
% inhibition=((HC−LC)−(compound−LC)/(HC−LC))*100 • where LC—low control=mean signal of human kallikrein enzyme or 100% inhibition of human kallikrein enzyme; HC—high control=mean signal of Factor XIa+Z-Gly-Pro-Arg-AMC peptide substrate with DMSO only.
as §2
as §3, with “Y=Bottom+(Top−Bottom)/(1+10^((log IC50−X)*HillSlope))” for “[formula]”, “human kallikrein enzyme+Z-Gly-Pro-Arg-AMC” for “Factor XIa+5Fam-KLTRAETV-K5Tamra”, “human kallikrein enzyme” for “Factor XIa”, “human kallikrein enzyme;” for “Factor XIa;”
Representative compounds of formula (I) of the present invention were tested according to the procedure described in Biological Example 1 and Biological Example 2 above, with results as listed in Table 3, below. Results listed in the (ER) column were measured using endpoint reads where a single fluorescence reading was measured for each well at a 30 min timepoint. […]

[1] = kinetic reads at 5 min intervals over 30 min, 30 min preincubation, read-out: FXIa (KIN) IC50
[2] = kinetic reads at 5 min intervals over 30 min, 30 min preincubation, read-out: Kallikrein (KIN) IC50
[3] = kinetic reads, unit μM, read-out: Kallikrein (KIN) IC50

Chain of Factor XIa (P03951 388-625 limits assumed): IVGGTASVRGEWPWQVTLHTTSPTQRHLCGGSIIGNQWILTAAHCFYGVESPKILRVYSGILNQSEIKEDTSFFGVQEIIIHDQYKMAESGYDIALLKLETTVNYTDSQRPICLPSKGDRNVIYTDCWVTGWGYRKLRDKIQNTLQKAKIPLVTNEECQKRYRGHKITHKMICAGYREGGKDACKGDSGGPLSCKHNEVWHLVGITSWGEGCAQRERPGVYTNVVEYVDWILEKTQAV
Chain of Factor XIa (P03951 19-387 partner limits assumed): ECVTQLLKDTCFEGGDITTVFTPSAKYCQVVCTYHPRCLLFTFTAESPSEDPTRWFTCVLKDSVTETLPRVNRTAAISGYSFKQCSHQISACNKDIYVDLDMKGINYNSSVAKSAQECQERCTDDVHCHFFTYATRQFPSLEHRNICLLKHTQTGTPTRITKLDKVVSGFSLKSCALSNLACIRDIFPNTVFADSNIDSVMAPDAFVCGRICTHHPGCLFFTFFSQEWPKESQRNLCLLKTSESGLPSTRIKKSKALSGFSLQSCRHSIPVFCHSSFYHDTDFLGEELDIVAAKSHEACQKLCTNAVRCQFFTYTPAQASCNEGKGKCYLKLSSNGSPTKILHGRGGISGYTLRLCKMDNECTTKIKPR
Chain of human plasma kallikrein (P03952 391-638 limits assumed): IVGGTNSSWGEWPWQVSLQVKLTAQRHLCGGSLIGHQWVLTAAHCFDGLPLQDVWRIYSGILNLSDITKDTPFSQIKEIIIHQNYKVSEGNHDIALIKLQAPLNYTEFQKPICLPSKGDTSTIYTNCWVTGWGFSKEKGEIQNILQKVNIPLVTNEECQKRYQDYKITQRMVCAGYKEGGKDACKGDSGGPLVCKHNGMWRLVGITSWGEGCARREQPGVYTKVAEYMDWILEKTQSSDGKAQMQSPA
Chain of human plasma kallikrein (P03952 20-390 partner limits assumed): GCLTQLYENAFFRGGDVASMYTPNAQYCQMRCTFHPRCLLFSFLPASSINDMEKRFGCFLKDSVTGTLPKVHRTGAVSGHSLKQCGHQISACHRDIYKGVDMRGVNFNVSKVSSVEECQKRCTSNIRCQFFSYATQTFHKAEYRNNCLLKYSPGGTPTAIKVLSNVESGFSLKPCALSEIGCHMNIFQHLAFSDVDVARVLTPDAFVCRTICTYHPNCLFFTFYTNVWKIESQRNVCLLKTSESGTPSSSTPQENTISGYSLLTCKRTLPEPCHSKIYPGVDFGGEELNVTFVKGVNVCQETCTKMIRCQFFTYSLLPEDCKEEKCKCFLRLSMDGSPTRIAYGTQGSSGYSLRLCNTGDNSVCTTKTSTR

`COC(=O)Nc1ccc(-c2cn(C(CC3CC3)c3ccc(-c4c(-n5cnnn5)ccc(Cl)c4F)c[n+]3[O-])cn2)cc1` (stereo not shown) [M3, 5-(3-Chloro-2-fluoro-6-(1H-tetrazol-1-yl)phenyl)-2-(2-cyclopropyl-1-(4-(4-((methoxycarbonyl)amino)phenyl)-1H-imidazol-1-yl)ethyl)pyridine 1-oxide] gave an IC50 (Factor XIa; [1]) of 0.0085 µM and an IC50 (human plasma kallikrein; [2]) of 0.169 µM.

`[O-][n+]1cc(-c2c(-n3cc(C(F)(F)F)nn3)ccc(Cl)c2F)ccc1[C@H](CCOC(F)F)n1cc(-c2cnnn2C(F)F)nn1` [T9, (S)-5-(3-Chloro-2-fluoro-6-(4-(trifluoromethyl)-1H-1,2,3-triazol-1-yl)phenyl)-2-(3-(difluoromethoxy)-1-(3′-(difluoromethyl)-1H,3′H-[4,4′-bi(1,2,3-triazol)]-1-yl)propyl)pyridine 1-oxide] was tested, and the IC50 (Factor XIa; [1]) was greater than 0.1 µM and the IC50 (human plasma kallikrein; [3]) was greater than 1 µM.

For `[2H]C([2H])([2H])n1nccc1-c1cn(C(CCOC(F)F)c2ccc(-c3c(-n4cc(C(F)(F)F)nn4)ccc(Cl)c3F)c[n+]2[O-])cn1` (single isomer, unassigned) [M15, (R*)-5-(3-Chloro-2-fluoro-6-(4-(trifluoromethyl)-1H-1,2,3-triazol-1-yl)phenyl)-2-(3-(difluoromethoxy)-1-(4-(1-(methyl-d3)-1H-pyrazol-5-yl)-1H-imidazol-1-yl)propyl)pyridine 1-oxide], the IC50 (Factor XIa; [1]) was greater than 0.1 µM and the IC50 (human plasma kallikrein; [3]) was greater than 1 µM.

In the case of `O=C(O)c1ccc(-c2cn(C(CC3CC3)c3ccc(-c4cc(Cl)ccc4-n4cnnn4)c[n+]3[O-])nn2)cc1` (stereo not shown) [T1, 2-(1-(4-(4-Carboxyphenyl)-1H-1,2,3-triazol-1-yl)-2-cyclopropylethyl)-5-(5-chloro-2-(1H-tetrazol-1-yl)phenyl)pyridine 1-oxide], the IC50 (Factor XIa; end point read at 30 min, 30 min preincubation, read-out: FXIa (EP) IC50) is reported as 0.0016 µM and the IC50 (human plasma kallikrein; end point read at 30 min, 30 min preincubation, read-out: Kallikrein (EP) IC50) is reported as 0.0835 µM.

`Cn1nncc1-c1cn([C@H](CCOC(F)F)c2ccc(-c3c(-n4cc(C(F)(F)F)nn4)ccc(Cl)c3F)c[n+]2[O-])cn1` [M10, (R)-5-(3-Chloro-2-fluoro-6-(4-(trifluoromethyl)-1H-1,2,3-triazol-1-yl)phenyl)-2-(3-(difluoromethoxy)-1-(4-(1-methyl-1H-1,2,3-triazol-5-yl)-1H-imidazol-1-yl)propyl)pyridine 1-oxide] was tested, and the IC50 (Factor XIa; [1]) was 0.0005 µM and the IC50 (human plasma kallikrein; [2]) was 0.0489 µM.

With `Cn1nncc1-c1cn([C@H](CC2CC2)c2ccc(-c3c(-n4cnnn4)ccc(Cl)c3F)c[n+]2[O-])nn1` [T6, (R)-5-(3-Chloro-2-fluoro-6-(1H-tetrazol-1-yl)phenyl)-2-(2-cyclopropyl-1-(3′-methyl-1H,3′H-[4,4′-bi(1,2,3-triazol)]-1-yl)ethyl)pyridine 1-oxide] the IC50 (Factor XIa; [1]) was 0.0034 µM and the IC50 (human plasma kallikrein; [2]) was 0.312 µM.

Work on `Cn1ncnc1-c1cn(C(CCOC(F)F)c2ccc(-c3c(-n4cc(C(F)(F)F)nn4)ccc(Cl)c3F)c[n+]2[O-])nn1` (stereo not shown) [T7, 5-(3-Chloro-2-fluoro-6-(4-(trifluoromethyl)-1H-1,2,3-triazol-1-yl)phenyl)-2-(3-(difluoromethoxy)-1-(4-(1-methyl-1H-1,2,4-triazol-5-yl)-1H-1,2,3-triazol-1-yl)propyl)pyridine 1-oxide] yielded an IC50 (Factor XIa; [1]) of roughly 0.0023 µM and an IC50 (human plasma kallikrein; [2]) of roughly 0.334 µM.

`[O-][n+]1cc(-c2c(-n3cnnn3)ccc(Cl)c2F)ccc1C(Cc1ccc(F)cc1)n1cnc(-c2ccncc2)c1` (stereo not shown) [M5, 5-(3-Chloro-2-fluoro-6-(1H-tetrazol-1-yl)phenyl)-2-(2-(4-fluorophenyl)-1-(4-(pyridin-4-yl)-1H-imidazol-1-yl)ethyl)pyridine 1-oxide] was tested, and the IC50 (Factor XIa; [1]) was 0.0007 µM and the IC50 (human plasma kallikrein; [2]) was 0.0017 µM.

`[O-][n+]1cc(-c2c(-n3cc(C(F)(F)F)nn3)ccc(Cl)c2F)ccc1[C@H](CCOC(F)F)n1cnc(-c2ncnn2C(F)F)c1` [M6, (S)-5-(3-Chloro-2-fluoro-6-(4-(trifluoromethyl)-1H-1,2,3-triazol-1-yl)phenyl)-2-(3-(difluoromethoxy)-1-(4-(1-(difluoromethyl)-1H-1,2,4-triazol-5-yl)-1H-imidazol-1-yl)propyl)pyridine 1-oxide] was tested, and the IC50 (Factor XIa; kinetic reads, unit μM printed in the cell, read-out: FXIa (KIN) IC50) was greater than 10 µM and the IC50 (human plasma kallikrein; [3]) was greater than 10 µM.

In the case of `[O-][n+]1cc(-c2c(-n3cnnn3)ccc(Cl)c2F)ccc1[C@H](CCOC(F)F)n1cnc(-c2cnnn2C(F)F)c1` [M13, (S)-5-(3-Chloro-2-fluoro-6-(1H-tetrazol-1-yl)phenyl)-2-(3-(difluoromethoxy)-1-(4-(1-(difluoromethyl)-1H-1,2,3-triazol-5-yl)-1H-imidazol-1-yl)propyl)pyridine 1-oxide], the IC50 (Factor XIa; [1]) is reported as greater than 0.2 µM and the IC50 (human plasma kallikrein; [3]) is reported as greater than 2 µM.

`Cn1nncc1-c1cn([C@@H](CC2CC2)c2ccc(-c3c(-n4cnnn4)ccc(Cl)c3F)c[n+]2[O-])nn1` [T5, (S)-5-(3-Chloro-2-fluoro-6-(1H-tetrazol-1-yl)phenyl)-2-(2-cyclopropyl-1-(3′-methyl-1H,3′H-[4,4′-bi(1,2,3-triazol)]-1-yl)ethyl)pyridine 1-oxide] showed an IC50 (Factor XIa; [1]) of 0.308 µM and an IC50 (human plasma kallikrein; [3]) greater than 10 µM.
